Assay results from ChEMBL document CHEMBL1127794, “Structure-activity relationships of 1,3-dialkylxanthine derivatives at rat A3 adenosine receptors” (J Med Chem, 1994).

Columns and labels:
[1] = biological target: Adenosine receptors; A1 & A3 (Rattus norvegicus) (UniProt P25099+P28647); assay: Ratio of selectivity for A3 and A1 receptors at rat brain
[2] = biological target: T1, Adenosine receptor A3 (Rattus norvegicus, UniProt P28647); assay: Displacement of [125I]AB-MECA from membranes of CHO cells stably transfected with the rat adenosine A3 receptor cDNA; format: cell membranes
T1 sequence (P28647 whole entry): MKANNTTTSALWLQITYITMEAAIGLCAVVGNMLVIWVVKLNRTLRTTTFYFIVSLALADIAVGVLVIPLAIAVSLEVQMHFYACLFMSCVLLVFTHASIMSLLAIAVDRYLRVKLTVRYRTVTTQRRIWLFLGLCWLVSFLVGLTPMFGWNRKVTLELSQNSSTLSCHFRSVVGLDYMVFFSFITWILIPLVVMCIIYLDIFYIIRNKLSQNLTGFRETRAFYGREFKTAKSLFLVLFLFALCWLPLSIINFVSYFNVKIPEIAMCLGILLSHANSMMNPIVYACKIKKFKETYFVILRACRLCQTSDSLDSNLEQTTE

[3] = biological target: Adenosine receptor A2a (Rattus norvegicus, UniProt P30543)
Description: Displacement of [3H]-CGS- 21680 from adenosine A2a receptors of rat striatal membrane

[4] = biological target: T2, Adenosine receptor A1 (Rattus norvegicus, UniProt P25099)
T2 sequence (P25099 whole entry): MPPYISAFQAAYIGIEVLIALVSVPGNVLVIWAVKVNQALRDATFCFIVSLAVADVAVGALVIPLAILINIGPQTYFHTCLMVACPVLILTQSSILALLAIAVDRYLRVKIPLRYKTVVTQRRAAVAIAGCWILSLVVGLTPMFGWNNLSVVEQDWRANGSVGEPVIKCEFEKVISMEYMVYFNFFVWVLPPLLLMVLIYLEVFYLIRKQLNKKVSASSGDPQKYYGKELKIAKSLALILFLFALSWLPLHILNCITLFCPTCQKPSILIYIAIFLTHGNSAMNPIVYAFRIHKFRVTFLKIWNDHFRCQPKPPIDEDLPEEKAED
Description: Displacement of [3H]PIA from adenosine A1 receptors of rat brain membrane

[5] = biological target: T3, Adenosine receptor A3 (Rattus norvegicus) (UniProt P28647); assay: Tested for the binding affinity, for displacement of [125I]AB-MECA in membranes of CHO cells stably transfected with the rat A3-cDNA at the 10e-4 concentration (M); format: cell membranes
T3 sequence (whole entry): T1 sequence (P28647 whole entry)

[6] = biological target: Adenosine receptor A2a (Rattus norvegicus) (UniProt P30543); assay: Tested for the binding affinity, for displacement of [3H]-CGS- 21680 in A2a receptors of rat striatal membrane at 10e-5 concentration (M)
[7] = biological target: T3, Adenosine receptor A3 (Rattus norvegicus); assay: Tested for the binding affinity, for displacement of [125I]AB-MECA in membranes of CHO cells stably transfected with the rat A3-cDNA at the 10e-5 concentration (M); format: cell membranes
[8] = biological target: T3, Adenosine receptor A3 (Rattus norvegicus); assay: Tested for the binding affinity, for displacement of [125I]AB-MECA in membranes of CHO cells stably transfected with the rat A3-cDNA at the 3*10e-5 concentration (M); format: cell membranes
[9] = biological target: T4, Adenosine receptor A1 (Rattus norvegicus) (UniProt P25099); assay: Tested for the binding affinity, for displacement of [3H]PIA in A1 receptors of rat brain membrane at 10e-4 concentration (M); format: cell membranes
T4 sequence (whole entry): T2 sequence (P25099 whole entry)

[10] = biological target: Adenosine receptor A2a (Rattus norvegicus) (UniProt P30543); assay: Tested for the binding affinity, for displacement of [3H]-CGS- 21680 in A2a receptors of rat striatal membrane at 10e-4 concentration (M)

Sequence of Adenosine receptor A2a (Rattus norvegicus) (P30543 whole entry): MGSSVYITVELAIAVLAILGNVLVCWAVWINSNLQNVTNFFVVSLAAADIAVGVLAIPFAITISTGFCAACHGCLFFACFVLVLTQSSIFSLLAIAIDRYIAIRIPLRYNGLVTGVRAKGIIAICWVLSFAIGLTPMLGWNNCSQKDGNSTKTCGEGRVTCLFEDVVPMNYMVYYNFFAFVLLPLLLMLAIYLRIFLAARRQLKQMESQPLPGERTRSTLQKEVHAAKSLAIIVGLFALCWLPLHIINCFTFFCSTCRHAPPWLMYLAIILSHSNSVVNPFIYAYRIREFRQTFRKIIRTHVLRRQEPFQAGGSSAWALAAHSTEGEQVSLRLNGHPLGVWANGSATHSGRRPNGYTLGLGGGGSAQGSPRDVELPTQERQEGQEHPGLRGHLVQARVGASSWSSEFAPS
Sequence of Adenosine receptor A2a (P30543 whole entry): as above

Cn1c(=O)c2c(nc(/C=C/C(=O)O)n2C)n(C)c1=O
Ratio [1]: < 1
Ki [2]: 130 µM

CCCn1c(=O)c2[nH]c(-c3ccc(S(=O)(=O)O)cc3)nc2n(CCC)c1=O
Ki [2]: 90.1 µM

CCCn1c(=O)c2[nH]c(-c3ccc(OCC(=O)NCCN)cc3)nc2n(CCC)c1=O [XANTHINE AMINE CONGENER]
Ki [2]: 29 µM

CCCCn1c(=O)c2nc(CCCC(=O)O)[nH]c2n(CCCC)c1=O
Ratio [1]: 9.4
Ki [3]: 113 µM
Ki [2]: 133 µM

CCCCn1c(=O)c2nc[nH]c2n(CCCC)c1=O
Ratio [1]: 290

CCCn1c(=O)c2nc(-c3ccc(/C=C/C(=O)O)cc3)[nH]c2n(CCC)c1=O
Ki [3]: 0.8 µM

Cn1c(=O)c2c(nc(/C=C/c3cccc(NC(=O)CCCCC(=O)O)c3)n2C)n(C)c1=O
Ratio [1]: 36
Ki [3]: 0.00722 µM
Ki [4]: 6.51 µM
Ki [2]: 234 µM

CCCn1c(=O)c2nc(-c3ccc(OCC(=O)NCCNC(=O)CN(CC(=O)O)C(=O)CCC(=O)O)cc3)[nH]c2n(CCC)c1=O
Ratio [1]: 35
Ki [3]: 9.22 µM
Ki [4]: 2.86 µM
Ki [2]: 99.9 µM

Cn1c(=O)c2nc(CCCC(=O)O)[nH]c2n(C)c1=S
Ratio [1]: 1.6
Ki [3]: 67.8 µM
Ki [4]: 5.7 µM
Ki [2]: 9.36 µM

Cn1c(=O)c2c(ncn2C)n(C)c1=O
inhibition [5]: 30.1%

Cn1c(=O)c2c(nc(/C=C/c3cccc(NC(=O)CCCC(=O)O)c3)n2C)n(C)c1=O
Ratio [1]: 13
Ki [3]: 0.0099 µM
Ki [4]: 22.3 µM
Ki [2]: 289 µM

Cn1c(=O)c2c(ncn2Cc2ccccc2)n(C)c1=O
Ratio [1]: > 10
Ki [3]: 46 µM
inhibition [5]: 29.7%

C=CCn1c(=O)c2nc(-c3ccc(OCC(=O)O)cc3)[nH]c2n(CC=C)c1=O
Ratio [1]: 230

CCCn1c(=O)c2[nH]c(-c3ccc(OCC(=O)O)cc3)nc2n(CCC)c1=S
Ki [3]: 0.226 µM
Ki [2]: 6.77 µM

CCCCn1c(=O)c2nc(-c3ccc(OCC(=O)O)cc3)[nH]c2n(CCCC)c1=O
Ratio [1]: 640

O=c1c2[nH]cnc2n(Cc2ccccc2)c(=O)n1Cc1ccccc1
inhibition [6]: 3.6%
Ratio [1]: > 10
inhibition [7]: 20.3%

CCCn1c(=O)c2nc(-c3ccc(OCC(=O)O)cc3)[nH]c2n(CCC)c1=O
Ratio [1]: 1300

CCCn1c(=O)c2nc(-c3ccc(S(=O)(=O)O)cc3)[nH]c2n(CCC)c1=O
Ratio [1]: 640

CCCCn1c(=O)c2nc(CCCCC(=O)O)[nH]c2n(CCCC)c1=O
inhibition [8]: 13%

CCCCn1c(=O)c2[nH]cnc2n(CCCC)c1=O
Ki [3]: 29.3 µM
Ki [4]: 0.5 µM

CCCCn1c(=O)c2nc(CCC(=O)O)[nH]c2n(CCCC)c1=O
Ratio [1]: 18
Ki [3]: 71.7 µM
Ki [4]: 7.11 µM
Ki [2]: 129 µM

CCCCn1c(=O)c2[nH]c(CCCCC(=O)O)nc2n(CCCC)c1=O
Ki [3]: 20 µM
Ki [4]: 5.27 µM

CCCn1c(=O)c2nc(-c3ccc(OCC(=O)O)cc3)[nH]c2n(Cc2ccc(N)c(I)c2)c1=O
Ratio [1]: 32
Ki [3]: 0.7 µM
Ki [4]: 0.037 µM
Ki [2]: 1.17 µM

Cn1c(=O)c2[nH]c(CCCC(=O)O)nc2n(C)c1=O
Ki [2]: 93.4 µM

CCCCn1c(=O)c2nc(/C=C/C(=O)O)[nH]c2n(CCCC)c1=O
Ratio [1]: 22
Ki [3]: 16.5 µM
Ki [4]: 3.37 µM
Ki [2]: 73.7 µM

CCCCn1c(=O)c2c(nc(/C=C/C(=O)O)n2C)n(CCCC)c1=O
Ratio [1]: 21
Ki [3]: 23.2 µM
Ki [4]: 5.91 µM
Ki [2]: 127 µM

CCCn1c(=O)c2nc(-c3ccc(C(=O)O)cc3)[nH]c2n(CCC)c1=O
Ratio [1]: 230
Ki [3]: 0.637 µM
Ki [2]: 45.1 µM

CCCCn1c(=O)c2nc[nH]c2n(Cc2ccccc2)c1=O
Ratio [1]: 110
Ki [3]: 1.2 µM
Ki [4]: 0.668 µM
Ki [2]: 74.2 µM

CCCn1c(=O)c2nc(-c3ccc(OCC(=O)NCC(=O)O)cc3)[nH]c2n(CCC)c1=O
Ratio [1]: 800
Ki [3]: 0.455 µM
Ki [4]: 0.073 µM
Ki [2]: 58.5 µM

Cn1c(=O)c2c(nc(/C=C/c3cccc(NC(=O)CCC(=O)O)c3)n2C)n(C)c1=O
Ratio [1]: 9.2
Ki [3]: 0.0129 µM
Ki [4]: 20.5 µM
Ki [2]: 189 µM

Cn1c(=O)c2c(nc(/C=C/c3cccc(Cl)c3)n2C)n(C)c1=O
inhibition [7]: 4.2%

CCCCn1c(=O)c2c(nc(/C=C/C(=O)OC)n2C)n(CCCC)c1=O
Ki [3]: 5.85 µM
Ki [4]: 0.793 µM

CCCCCCn1c(=O)c2nc[nH]c2n(CCCCCC)c1=O
inhibition [6]: 14.3%
Ratio [1]: > 10
inhibition [7]: 9.2%

CCCn1c(=O)c2nc(-c3ccc(OCC(=O)NCCNC(=O)CNCC(=O)O)cc3)[nH]c2n(CCC)c1=O
Ratio [1]: 2700

CCCn1c(=O)c2nc(-c3ccc(OCC(=O)NCCNC(=O)CCC(=O)O)cc3)[nH]c2n(CCC)c1=O
Ratio [1]: 520
Ki [3]: 0.252 µM
Ki [4]: 0.078 µM
Ki [2]: 40.6 µM

Cn1c(=O)c2nc(CCCC(=O)O)[nH]c2n(C)c1=O
inhibition [9]: 0%
Ratio [1]: < 1
inhibition [10]: 26%

CCCn1c(=O)c2[nH]c(-c3ccc(OCC(=O)NCCNC(=O)CNCC(=O)O)cc3)nc2n(CCC)c1=O
Ki [3]: 0.157 µM
Ki [4]: 0.036 µM
Ki [2]: 98 µM

CCCn1c(=O)c2nc(-c3ccc(OCC(=O)O)cc3)[nH]c2n(CCC)c1=S
Ratio [1]: 126

CCCn1c(=O)c2[nH]c(C3CCCC3)nc2n(CCC)c1=O [1,3-DIPROPYL-8-CYCLOPENTYLXANTHINE [DPCPX]]
Ki [2]: 5.29 µM

CCCn1c(=O)c2nc(-c3ccc(OCC(=O)NCCNC(=O)CN(CC(=O)O)C(=O)OCC4c5ccccc5-c5ccccc54)cc3)[nH]c2n(CCC)c1=O
Ratio [1]: 1100
Ki [2]: 21.7 µM
